Measurements: patent US20170304460A1, “METHOD OF CONJUGATING A POLYPEPTIDE” (MedImmune, LLC, priority 2014, published 2017)
Read-outs that look alike come from different tables or passages of the source.

Assays:
T289C mAb = assay: Conjugation kinetics of x-maleimide-PEG-biotins with T289C mAb; format: physicochemical; conditions: for Second order rate constant (k2): conjugation to T289C mAb
Experimental: x-Maleimide-PEG-biotins were conjugated to mAb (comprising a T289C mutation of the Fc) in several steps. […] Reduced mAb was transferred to a slide-a-lizer dialysis cassette (10K MWCO) and dialyzed against PBS, 1 mM EDTA, pH 7.2-7.8, 4° C. for 24 hr with several buffer changes. Reduced mAb was oxidized to reform internal disulfides by addition of dehydroascorbic acid (21 μL of 50 mM stock in DMSO, 1.1 μmol, 20 eq) followed by gentle mixing for 4 hr at room temperature. Oxidized mAb solution was adjusted to the desired pH by addition of 1M sodium phosphate (monobasic for pH 5.5, dibasic for pH 8.6, or a stock adjusted to pH 7.4) to a final phosphate concentration of 100 mM and mAb concentration of 1.3 mg/mL. Next, 1.15 mL of mAb solution (1.5 mg, 10 nmol, 1 eq) was aliquoted into a vial followed by addition of x-maleimide-PEG-biotin stock solution (2 μL of a 10 mM stock solution in DMAc, 20 nmol, 2 eq). The reaction mixture was briefly vortexed and further incubated for the desired amount of time followed by addition of N-acetly cysteine (10 μL of a 100 mM solution in water, 1 μmol, 100 eq) and further incubation for 15 minutes to quench unreacted maleimide. All conjugation reactions were performed at room temperature (22° C.) under ambient atmosphere. Note that 2 eq x-maleimide-PEG-biotin relative to mAb=1 eq x-maleimide-PEG-biotin relative to free cysteine contained in the mAb. This general procedure was modified as needed to achieve desired reaction stoichiometry (i.e. different maleimide:mAb feeds).
ADC samples were analyzed using an Agilent 6520B Q-TOF mass spectrometer equipped with a RP-HPLC column (Agilent Poroshell 300SB-C3; 5 um, 2.1 mm×75 mm; Part#660750-909). High-performance liquid chromatography (HPLC) parameters were as follows: flow rate, 0.4 ml/min; mobile phase A was 0.1% (v/v) formic acid in HPLC-grade H2O, and mobile phase B was 0.1% (v/v) formic acid in acetonitrile. The column was equilibrated in 90% A/10% B, which was also used to desalt the ADC samples, followed by elution in 40% A/60% B. Mass spec data were collected for 100-3000 m/z, positive polarity, a gas temperature of 350° C., a nebulizer pressure of 48 lb/in^2, and a capillary voltage of 5,000 V. Data were analyzed using vendor-supplied (Agilent v.B.04.00) MassHunter Qualitative Analysis software and peak intensities from deconvoluted spectra were used to derive the relative proportion of reactants and products; and reaction kinetics.
Half-lives were calculated from the derived rate constants using Equation 4 for pseudo-first order reactions (hydrolysis and deconjugation) and Equation 5 for second-order reactions (conjugation): […]
Conjugation data were analyzed in units of molar concentration to determine kinetic constants. Second order rate constants were determined from the slopes of curves generated from plotting 1/[SH] versus time and linear regression analysis.

[1] = Maleimide hydrolysis kinetics (pre-incubation in buffer, then reaction with T289C mAb); format: physicochemical; conditions: for half-life at 1 mM: sodium phosphate buffer, read-out: Hydrolysis T1/2 (maleimide) (converted)
Experimental: x-Maleimide-PEG-biotins were pre-incubated in buffer solutions of different pH to assess their stability and thiol conjugation efficiency over time. This assay indirectly monitors maleimide hydrolysis because hydrolyzed maleimides are not reactive towards thiols. Antibody bearing the T289C FC mutation was reduced and oxidized as described above and adjusted to 1.5 mg/mL in PBS containing 50 mM sodium phosphate pH 7.4. Maleimide solutions were prepared in buffer (100 mM sodium phosphate pH 5.5, 7.4, 8.6) by combining 20 μL x-maleimide-PEG-biotin solution (10 mM solution in DMAc) with 180 μL buffer at the desired pH (final x-maleimide-PEG-biotin concentration=1 mM) and incubated at 22° C. for determined time intervals prior to reaction with mAb. For conjugation reactions 267 μL mAb (1.5 mg/mL, 2.7 nmol, 1 eq) was combined with 5.3 μL buffer-incubated x-maleimide-PEG-biotin solution (5.4 nmol, 2 eq). […] The conjugation reaction proceeded at 22° C. for 1.5 hr at pH 7.4. After reaction samples were reduced with DTT at room temperature for 5 min and analyzed by mass spectrometry. Percent conjugation was calculated using equation 1.
Maleimide hydrolysis data were also analyzed in units of molar concentration to determine kinetic constants. Pseudo 1st order rate constants were determined from the slopes of curves generated from plotting ln [maleimide] versus time and linear regression analysis.

[2] = pH 7.0; cited from earlier work
[3] = pH 7.0; cited from earlier work; remark: listed apart in the source
[4] = cited from earlier work
[5] = BME challenge assay: sensitivity of PEG-biotin T289C mAb conjugates to thiol exchange in buffer containing thiols; format: physicochemical; conditions: pH 7.2, 37° C.
Experimental: Biotin-mAb conjugates were incubated in aqueous buffer containing β-mercaptoethanol (BME) to challenge the thiosuccinimide linkage against deconjugation. x-Maleimide-PEG-biotins were conjugated to mAb containing the T289C mutation as described above with minor modification. Conjugation reactions were performed at 1 equivalent x-PEG-maleimide:thiol for 15 min at 22° C. followed immediately by dilution to 0.2 mg/mL (1.33 μM mAb) with 1×PBS pH 7.2 containing 0.5 mM EDTA. The N-acetyl cysteine quenching step was omitted. For BME-containing samples, BME was added to a final concentration of 1% v/v (143 mM). Samples were further incubated at 37° C. under ambient atmosphere without stirring. Aliquots were removed at various time points, sterile filtered, reduced with DTT and then analyzed by LC/MS. Percent conjugated mAb and thiosuccinimide hydrolysis were determined from peak heights of mass spectra using Equation 1 and Equation 2, respectively. Deconjugated mAb and thiosuccinimide hydrolysis data were plotted as ln [concentration] vs. time (s) to obtain the pseudo-first order rate constants from the slope of the bestfit line.

[6] = Stability of mAb-biotin conjugates in the presence of free thiol (BME) after mild hydrolysis; format: physicochemical; conditions: pH 7.2, 37° C.
Experimental: Biotin-mAb conjugates were incubated in aqueous buffer containing β-mercaptoethanol (BME) to challenge the thiosuccinimide linkage against deconjugation. In this experiment, thiosuccinimide conjugates were subjected to a brief incubation at mildly basic conditions to facilitate thiosuccinimide hydrolysis before the stability challenge. x-Maleimide-PEG-biotins were conjugated to mAb containing the T289C mutation as described above with minor modification. Conjugation reactions were performed at 1 equivalent x-PEG-maleimide:thiol for 15 min at 22° C. followed quenching with N-acetyl cysteine (100 eq rel. to mAb) and further reaction for 5 minutes. Reaction mixtures were adjusted to pH 8.6 by addition of 10% v/v sodium phosphate (1M, dibasic) and then incubated at 37° C. for 1 hr. Reactions were then dialyzed against PBS (pH 7.2) containing 0.5 mM EDTA for 24 hr at 4° C. After dialysis, mAb concentrations were confirmed by A280 measurement (NanoDrop) and samples were diluted to 0.2 mg/mL (1.33 μM mAb) with 1×PBS pH 7.2 containing 0.5 mM EDTA. For BME-containing samples, BME was added to a final concentration of 1% v/v (143 mM). […] Aliquots were removed at various time points, sterile filtered, reduced with DTT and then analyzed by LC/MS. Percent conjugated mAb and thiosuccinimide hydrolysis was determined from peak heights of mass spectra using Equation 1 and Equation 2, respectively. […]

[7] = Thiosuccinimide hydrolysis kinetics for PEG-BCN conjugates; format: physicochemical; conditions: mAb-PEG-BCN conjugates at T289C, pH 7.2, 22° C.
Experimental: x-Maleimide-PEG-BCN-mAb conjugates were incubated in buffer solutions and monitored by LC/MS over time to observe thiosuccinimide hydrolysis. Conjugated T289C mAbs were diluted to 0.22 mg/mL with 1×PBS containing 0.5 mM EDTA, pH 7.2 and then dithiothreitol was added (0.5 M stock in water) to achieve a final concentration of 42 mM. Samples were placed into the LC/MS autosampler at 22° C. and injected periodically. Thiosuccinimide hydrolysis was confirmed by addition of 18 amu to the mAb conjugate peak in the mass spectrum. Semi-quantitative analysis of hydrolysis was performed using peak intensities in deconvoluted mass spectra and equation 3, which includes background subtraction using the T=0 measurement. Data was then converted into loss of thiosuccinimide (M) over time and plotted as ln [thiosuccinimide] vs seconds. The slope of the best fit line yielded the pseudo first-order rate constant for thiosuccinimide hydrolysis.

[8] = Reactivity of mAb-BCN conjugate with AC4GlcNAz after storage; format: physicochemical
Experimental: N-phenyl-maleimide-PEG-BCN-mAb conjugate (100 μL of 1.3, mg/mL solution in PBS with 0.5 mM EDTA, 0.87 nmol) was combined with AC4GlcNAz (1 μL of 500 mM stock in DMSO, 500 nmol). The reaction solution was incubated at room temperature without stirring for 1 hr at 22° C. For long-term reactivity studies, mAb-BCN conjugate was stored at 4° C. in PBS with 0.5 mM EDTA, pH 7.2 and aliquots were removed and reacted with AC4GlcNAz as described above. Conjugates were analyzed by reduced glycosylated mass spectrometry and conjugation efficiency was determined using equation 1.

Compound	Second order rate constant (k2) (T289C mAb; pH 5.5, 22° C.) [M⁻¹ s⁻¹]	Second order rate constant (k2) (T289C mAb; pH 7.4, 22° C.) [M⁻¹ s⁻¹]	Second order rate constant (k2) (T289C mAb; pH 8.6, 22° C.) [M⁻¹ s⁻¹]	Psuedo first order rate constant (kobs), maleimide hydrolysis ([1]; pH 7.4, 22° C.) [s⁻¹]	Psuedo first order rate constant (kobs), maleimide hydrolysis ([1]; pH 8.6, 22° C.) [s⁻¹]	half-life at 1 mM ([1]; pH 7.4, 22° C.) [h]	half-life at 1 mM ([1]; pH 8.6, 22° C.) [h]	further results
2-fluoro-5-maleimidophenyl-PEG7-biotin [F-phenyl maleimide-PEG-biotin]								thiol conjugation is complete in (T289C mAb; pH 8.6): 15 s
O=C(CCCCC1SCC2NC(=O)NC21)NCCOCCOCCOCCOCCOCCOCCOCCNC(=O)CCN1C(=O)C=CC1=O (centres unmarked) [Alkyl maleimide-PEG-biotin, maleimidoproprionyl-PEG7-biotin, reference compound]	13	500	~28000	2.3e-05	0.0002	7.7	1	
O=C(CCCCC1SCC2NC(=O)NC21)NCCOCCOCCOCCOCCOCCOCCOCCNC(=O)c1cc(N2C(=O)C=CC2=O)ccc1F (centres unmarked) [F-phenyl maleimide-PEG-biotin, 2-fluoro-5-maleimidophenyl-PEG7-biotin]	55.4	4500	~39000	0.00017	0.0019	1.1	0.1	
CCN1C(=O)C=CC1=O [N-ethyl maleimide]								k2, reaction with cysteine [2]: 1620 M⁻¹ s⁻¹; k2, reaction with β-mercaptoethanol [3]: 710 M⁻¹ s⁻¹
O=C1C=CC(=O)N1c1ccccc1 [N-phenyl maleimide]								kobs, hydrolysis ([4]; pH 7.6, 25° C.): 7e-05 s⁻¹
O=C(CCCCC1SCC2NC(=O)NC21)NCCOCCOCCOCCOCCOCCOCCOCCNC(=O)Cc1ccc(N2C(=O)C=CC2=O)cc1 (centres unmarked) [Phenyl maleimide-PEG-biotin, maleimidophenylacetyl-PEG7-biotin]	23.8	1300	~34000	8.5e-05	0.00076	2.3	0.3	
O=C1C=CC(=O)N1 [maleimide]								kobs, hydrolysis ([4]; pH 8.38, 30° C.): 0.000151 s⁻¹
N-fluorophenyl thiosuccinimide								Max deconjugation + BME ([5]; 1% v/v BME): 10%; Max deconjugation − BME ([5]; without BME): None; Max deconjugation + BME ([6]; 1% v/v BME): None; Max deconjugation − BME ([6]; without BME): None
Phenyl thiosuccinimide								Psuedo first order rate constant (kobs), thiosuccinimide hydrolysis [7]: 1.9e-05 s⁻¹; Azide conjugation (BCN reactivity) ([8]; 1 day storage at 4° C.): quantitative; Azide conjugation (BCN reactivity) ([8]; 4 days storage at 4° C.): quantitative; Azide conjugation (BCN reactivity) ([8]; 7 days storage at 4° C.): quantitative; Azide conjugation (BCN reactivity) ([8]; 10 days storage at 4° C.): quantitative; Azide conjugation (BCN reactivity) ([8]; 15 days storage at 4° C.): quantitative; Azide conjugation (BCN reactivity) ([8]; 21 days storage at 4° C.): quantitative; time without loss of BCN reactivity ([8]; after conjugation and storage at 4° C.): > 21 days
